Laboratory results from patent publication US9695155B2, “Herbicidal substituted pyrimidinyloxy benzene compounds” (E. I. DU PONT DE NEMOURS AND COMPANY, priority 2013, dated 2017).

Legend:
Test in all cases: Test F preemergence
Conditions in all cases: 21 days, scale 0 to 100
foxtail, green = assay type: in vivo, Setaria viridis
Excerpt: (§1) Seeds of plant species selected from bermudagrass (Cynodon dactylon), surinam grass (Brachiaria decumbens), large (Lg) crabgrass (Digitaria sanguinalis), crabgrass, naked (naked crabgrass, Digitaria nuda), foxtail, green (green foxtail, Setaria viridis), johnsongrass (Sorghum halepense), kochia (Kochia scoparia), morningglory (pitted morningglory, Ipomoea lacunosa), nutsedge, purple (purple nutsedge, Cyperus rotundus), ragweed (common ragweed, Ambrosia elatior), mustard, black (black mustard, Brassica nigra), guineagrass (Panicum maximum), dallisgrass (Paspalum dilatatum), barnyardgrass (Echinochloa crus-galli), sandbur (southern sandbur, Cenchrus echinatus), sowthistle (common sowthistle, Sonchus oleraceous), Italian ryegrass (Lolium multiflorum), signalgrass (broadleaf signalgrass, Brachiaria platyphylla), dayflower (Virginia (VA) dayflower, Commelina virginica), bluegrass (annual bluegrass, Poa annua), quackgrass (Elytrigia repens), mallow (common mallow, Malva sylvestris), buckwheat, wild (wild buckwheat, Polygonum convolvulus), leafy spurge (Euphorbia esula), chickweed (common chickweed, Stellaria media), wild poinsettia (Euphorbia heterophylla), and pigweed (Amaranthus retroflexus) were planted into a blend of loam soil and sand and treated preemergence with test chemicals formulated in a non-phytotoxic solvent mixture which included a surfactant.
(§2) Treated plants and controls were maintained in a greenhouse for 21 days, after which time all species were compared to controls and visually evaluated. Plant response ratings, summarized in Table F, are based on a scale of 0 to 100 where 0 is no effect and 100 is complete control. A dash (-) response means no test result.

dallisgrass = assay type: in vivo, Paspalum dilatatum
Excerpt: as §1, §2

kochia = assay type: in vivo, Kochia scoparia
Excerpt: as §1, §2

sandbur = assay type: in vivo, Cenchrus echinatus
Excerpt: as §1, §2

bluegrass = assay type: in vivo, Poa annua
Excerpt: as §1, §2

leafy spurge = assay type: in vivo, Euphorbia esula
Excerpt: as §1, §2

wild poinsettia = assay type: in vivo, Euphorbia heterophylla
Excerpt: as §1, §2

nutsedge, purple = assay type: in vivo, Cyperus rotundus
Excerpt: as §1, §2

ragweed = assay type: in vivo, Ambrosia elatior
Excerpt: as §1, §2

crabgrass, naked = assay type: in vivo, Digitaria nuda
Excerpt: as §1, §2

johnsongrass = assay type: in vivo, Sorghum halepense
Excerpt: as §1, §2

pigweed = assay type: in vivo, Amaranthus retroflexus
Excerpt: as §1, §2

chickweed = assay type: in vivo, Stellaria media
Excerpt: as §1, §2

large (Lg) crabgrass = assay type: in vivo, Digitaria sanguinalis
Excerpt: as §1, §2

dayflower = assay type: in vivo, Commelina virginica
Excerpt: as §1, §2

bermudagrass = assay type: in vivo, Cynodon dactylon
Excerpt: as §1, §2

[1] = tested on: morningglory (pitted morningglory); assay type: in vivo, Ipomoea lacunosa
Excerpt: as §1, §2

mustard, black = assay type: in vivo, Brassica nigra
Excerpt: as §1, §2

signalgrass = assay type: in vivo, Brachiaria platyphylla
Excerpt: as §1, §2

surinam grass = assay type: in vivo, Brachiaria decumbens
Excerpt: as §1, §2

## N#Cc1cccc(Oc2ncc(Cl)cn2)c1-n1cc(C(F)(F)F)cn1 [Compound 58, 3-[(5-chloro-2-pyrimidinyl)oxy]-2-[4-(trifluoromethyl)-1H-pyrazol-1-yl]benzonitrile]
foxtail, green; 16 g ai/ha
  Plant response rating, Foxtail, Green: 75
foxtail, green; 31 g ai/ha
  Plant response rating, Foxtail, Green: 100
foxtail, green; 62 g ai/ha
  Plant response rating, Foxtail, Green: 100
foxtail, green; 125 g ai/ha
  Plant response rating, Foxtail, Green: 100
foxtail, green; 250 g ai/ha
  Plant response rating, Foxtail, Green: 100
dallisgrass; 16 g ai/ha
  Plant response rating, Dallisgrass: 90
dallisgrass; 31 g ai/ha
  Plant response rating, Dallisgrass: 100
dallisgrass; 62 g ai/ha
  Plant response rating, Dallisgrass: 100
dallisgrass; 125 g ai/ha
  Plant response rating, Dallisgrass: 100
dallisgrass; 250 g ai/ha
  Plant response rating, Dallisgrass: 100
kochia; 16 g ai/ha
  Plant response rating, Kochia: 98
kochia; 31 g ai/ha
  Plant response rating, Kochia: 100
kochia; 62 g ai/ha
  Plant response rating, Kochia: 100
kochia; 125 g ai/ha
  Plant response rating, Kochia: 100
kochia; 250 g ai/ha
  Plant response rating, Kochia: 100
sandbur; 16 g ai/ha
  Plant response rating, Sandbur: 10
sandbur; 31 g ai/ha
  Plant response rating, Sandbur: 35
sandbur; 62 g ai/ha
  Plant response rating, Sandbur: 95
sandbur; 125 g ai/ha
  Plant response rating, Sandbur: 100
sandbur; 250 g ai/ha
  Plant response rating, Sandbur: 100
bluegrass; 16 g ai/ha
  Plant response rating, Bluegrass: 50
bluegrass; 31 g ai/ha
  Plant response rating, Bluegrass: 80
bluegrass; 62 g ai/ha
  Plant response rating, Bluegrass: 98
bluegrass; 125 g ai/ha
  Plant response rating, Bluegrass: 98
bluegrass; 250 g ai/ha
  Plant response rating, Bluegrass: 100
Leafy spurge; 16 g ai/ha
  Plant response rating, Leafy Spurge: 100
Leafy spurge; 31 g ai/ha
  Plant response rating, Leafy Spurge: 95
Leafy spurge; 62 g ai/ha
  Plant response rating, Leafy Spurge: 100
Leafy spurge; 125 g ai/ha
  Plant response rating, Leafy Spurge: 100
Leafy spurge; 250 g ai/ha
  Plant response rating, Leafy Spurge: 100
Wild poinsettia; 16 g ai/ha
  Plant response rating, Poinsettia, Wild: 25
Wild poinsettia; 31 g ai/ha
  Plant response rating, Poinsettia, Wild: 65
Wild poinsettia; 62 g ai/ha
  Plant response rating, Poinsettia, Wild: 100
Wild poinsettia; 125 g ai/ha
  Plant response rating, Poinsettia, Wild: 100
Wild poinsettia; 250 g ai/ha
  Plant response rating, Poinsettia, Wild: 100
nutsedge, purple; 16 g ai/ha
  Plant response rating, Nutsedge, Purple: 0
nutsedge, purple; 31 g ai/ha
  Plant response rating, Nutsedge, Purple: 60
nutsedge, purple; 62 g ai/ha
  Plant response rating, Nutsedge, Purple: 40
nutsedge, purple; 125 g ai/ha
  Plant response rating, Nutsedge, Purple: 70
nutsedge, purple; 250 g ai/ha
  Plant response rating, Nutsedge, Purple: 80
ragweed; 16 g ai/ha
  Plant response rating, Ragweed: 60
ragweed; 31 g ai/ha
  Plant response rating, Ragweed: 65
ragweed; 62 g ai/ha
  Plant response rating, Ragweed: 70
ragweed; 125 g ai/ha
  Plant response rating, Ragweed: 75
ragweed; 250 g ai/ha
  Plant response rating, Ragweed: 95
crabgrass, naked; 16 g ai/ha
  Plant response rating, Crabgrass, Naked: 100
crabgrass, naked; 31 g ai/ha
  Plant response rating, Crabgrass, Naked: 100
crabgrass, naked; 62 g ai/ha
  Plant response rating, Crabgrass, Naked: 100
crabgrass, naked; 125 g ai/ha
  Plant response rating, Crabgrass, Naked: 100
crabgrass, naked; 250 g ai/ha
  Plant response rating, Crabgrass, Naked: 100
johnsongrass; 16 g ai/ha
  Plant response rating, Johnsongrass: 65
johnsongrass; 31 g ai/ha
  Plant response rating, Johnsongrass: 98
johnsongrass; 62 g ai/ha
  Plant response rating, Johnsongrass: 100
johnsongrass; 125 g ai/ha
  Plant response rating, Johnsongrass: 100
johnsongrass; 250 g ai/ha
  Plant response rating, Johnsongrass: 100
pigweed; 16 g ai/ha
  Plant response rating, Pigweed: 100
pigweed; 31 g ai/ha
  Plant response rating, Pigweed: 100
pigweed; 62 g ai/ha
  Plant response rating, Pigweed: 100
pigweed; 125 g ai/ha
  Plant response rating, Pigweed: 100
pigweed; 250 g ai/ha
  Plant response rating, Pigweed: 100
chickweed; 16 g ai/ha
  Plant response rating, Chickweed: 100
chickweed; 31 g ai/ha
  Plant response rating, Chickweed: 100
chickweed; 62 g ai/ha
  Plant response rating, Chickweed: 100
chickweed; 125 g ai/ha
  Plant response rating, Chickweed: 100
chickweed; 250 g ai/ha
  Plant response rating, Chickweed: 100
Large (Lg) crabgrass; 16 g ai/ha
  Plant response rating, Crabgrass, Large: 100
Large (Lg) crabgrass; 31 g ai/ha
  Plant response rating, Crabgrass, Large: 100
Large (Lg) crabgrass; 62 g ai/ha
  Plant response rating, Crabgrass, Large: 100
Large (Lg) crabgrass; 125 g ai/ha
  Plant response rating, Crabgrass, Large: 100
Large (Lg) crabgrass; 250 g ai/ha
  Plant response rating, Crabgrass, Large: 100
dayflower; 16 g ai/ha
  Plant response rating, Dayflower, VA: 90
dayflower; 31 g ai/ha
  Plant response rating, Dayflower, VA: 95
dayflower; 62 g ai/ha
  Plant response rating, Dayflower, VA: 100
dayflower; 125 g ai/ha
  Plant response rating, Dayflower, VA: 100
dayflower; 250 g ai/ha
  Plant response rating, Dayflower, VA: 100
bermudagrass; 16 g ai/ha
  Plant response rating, Bermudagrass: 95
bermudagrass; 31 g ai/ha
  Plant response rating, Bermudagrass: 100
bermudagrass; 62 g ai/ha
  Plant response rating, Bermudagrass: 100
bermudagrass; 125 g ai/ha
  Plant response rating, Bermudagrass: 100
bermudagrass; 250 g ai/ha
  Plant response rating, Bermudagrass: 100
[1]; 16 g ai/ha
  Plant response rating, Morningglory: 100
[1]; 31 g ai/ha
  Plant response rating, Morningglory: 98
[1]; 62 g ai/ha
  Plant response rating, Morningglory: 100
[1]; 125 g ai/ha
  Plant response rating, Morningglory: 100
[1]; 250 g ai/ha
  Plant response rating, Morningglory: 100
mustard, black; 16 g ai/ha
  Plant response rating, Mustard, Black: 100
mustard, black; 31 g ai/ha
  Plant response rating, Mustard, Black: 100
mustard, black; 62 g ai/ha
  Plant response rating, Mustard, Black: 100
mustard, black; 125 g ai/ha
  Plant response rating, Mustard, Black: 100
mustard, black; 250 g ai/ha
  Plant response rating, Mustard, Black: 100
signalgrass; 16 g ai/ha
  Plant response rating, Signalgrass: 95
signalgrass; 31 g ai/ha
  Plant response rating, Signalgrass: 100
signalgrass; 62 g ai/ha
  Plant response rating, Signalgrass: 100
signalgrass; 125 g ai/ha
  Plant response rating, Signalgrass: 100
signalgrass; 250 g ai/ha
  Plant response rating, Signalgrass: 100
Surinam grass; 16 g ai/ha
  Plant response rating, Surinam Grass: 25
Surinam grass; 31 g ai/ha
  Plant response rating, Surinam Grass: 60
Surinam grass; 62 g ai/ha
  Plant response rating, Surinam Grass: 98
Surinam grass; 125 g ai/ha
  Plant response rating, Surinam Grass: 100
Surinam grass; 250 g ai/ha
  Plant response rating, Surinam Grass: 100
